The source made the active and inactive calls. No cut-off for these calls is given here.
Key:
[1] = target: T1, Kappa-type opioid receptor (Cavia porcellus, UniProt P41144); experiment: Compound was evaluated for binding affinity against [3H]- bremazocine labeled kappa2 opioid receptor in guinea-pig brain homogenate.; assay type: tissue-based
[2] = target: T1, Kappa-type opioid receptor; experiment: Compound was evaluated for kappa opioid receptor mediated agonistic effect in electrically stimulated guinea-pig ileum; assay type: functional, tissue-based
Mu-type opioid receptor = Mu-type opioid receptor (Cavia porcellus, UniProt P97266); experiment: Compound was evaluated for binding affinity against [3H]- DAMGO labeled mu opioid receptor in guinea-pig brain homogenate.; assay type: tissue-based
Mus musculus = species on record: Mus musculus; experiment: Antagonism by the selective kappa-antagonist nor-binaltorphimine (nor-BNl) in mouse vas deferens(MVD) preparations; assay type: functional
[3] = target: T1, Kappa-type opioid receptor; experiment: Compound was evaluated for binding affinity against [3H]- U-69593 labeled kappa1 opioid receptor in guinea-pig brain homogenate.; assay type: tissue-based
Cavia porcellus [4] = species on record: Cavia porcellus; experiment: Antagonism by the selective kappa-antagonist nor-binaltorphimine (nor-BNl) in electrically stimulated guinea-pig ileum; assay type: functional
[5] = target: T2, Kappa-type opioid receptor (Mus musculus, UniProt P33534); experiment: Compound was evaluated for kappa opioid receptor mediated agonistic effect in mouse vas deferens(MVD) preparations; assay type: functional
[6] = target: T2, Kappa-type opioid receptor; experiment: Compound was evaluated for kappa opioid receptor mediated agonistic effect in mouse vas deferens(MVD) preparations; Not an agonist; assay type: functional
Cavia porcellus [7] = species on record: Cavia porcellus; experiment: Antagonism by the selective kappa-antagonist nor-binaltorphimine (nor-BNl) in electrically stimulated guinea-pig ileum; No inhibition; assay type: functional

T2 sequence (P33534 whole entry): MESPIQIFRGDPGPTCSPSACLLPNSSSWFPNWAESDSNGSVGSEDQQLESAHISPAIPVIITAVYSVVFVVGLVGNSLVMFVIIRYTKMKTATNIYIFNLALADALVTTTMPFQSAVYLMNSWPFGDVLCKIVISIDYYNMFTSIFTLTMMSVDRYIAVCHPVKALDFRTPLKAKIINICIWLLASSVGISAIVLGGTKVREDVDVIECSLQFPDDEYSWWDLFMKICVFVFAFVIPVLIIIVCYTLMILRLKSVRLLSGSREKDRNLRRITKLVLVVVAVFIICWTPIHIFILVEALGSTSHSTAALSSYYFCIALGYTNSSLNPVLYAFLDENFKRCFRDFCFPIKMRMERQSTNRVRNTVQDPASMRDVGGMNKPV
T1 sequence (P41144 whole entry): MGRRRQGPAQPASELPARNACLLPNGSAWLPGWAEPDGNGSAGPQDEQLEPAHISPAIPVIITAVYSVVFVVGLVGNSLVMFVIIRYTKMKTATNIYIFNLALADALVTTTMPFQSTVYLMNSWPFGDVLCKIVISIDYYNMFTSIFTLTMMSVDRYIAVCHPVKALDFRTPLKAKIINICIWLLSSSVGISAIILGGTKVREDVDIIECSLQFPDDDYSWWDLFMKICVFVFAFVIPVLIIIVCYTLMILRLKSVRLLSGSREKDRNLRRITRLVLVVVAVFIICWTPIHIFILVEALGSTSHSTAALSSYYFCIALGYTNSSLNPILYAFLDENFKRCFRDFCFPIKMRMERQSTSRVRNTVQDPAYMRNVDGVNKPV
Mu-type opioid receptor, sequence (P97266 whole entry): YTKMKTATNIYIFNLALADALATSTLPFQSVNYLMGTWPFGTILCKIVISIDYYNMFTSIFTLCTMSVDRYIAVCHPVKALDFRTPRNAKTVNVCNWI

| SMILES | Ki [1] [nM] | IC50 [2] [nM] | Ki (Mu-type opioid receptor) [nM] | Ke (Mus musculus) [nM] | Ki [3] [nM] | Ke (Cavia porcellus [4]) [nM] | IC50 [5] [nM] | IC50 [6] | Ke (Cavia porcellus [7]) |
| --- | --- | --- | --- | --- | --- | --- | --- | --- | --- |
| O=C(/C=C/c1ccccc1)N[C@@H]1CC[C@@]2(O)[C@H]3Cc4ccc(O)c5c4[C@@]2(CCN3CC2CC2)[C@H]1O5 | 12.8 | 0.4 | 0.07 | 5.1 | 0.2 | 0.5 | 5.6 |  |  |
| O=C(/C=C/c1ccc(Cl)cc1)N[C@@H]1CC[C@@]2(O)[C@H]3Cc4ccc(O)c5c4C2(CCN3CC2CC2)[C@H]1O5 | 48.3 | 2.2 | 0.1 |  | 0.2 | 0.3 |  | Not Active |  |
| O=C(/C=C/c1ccc([N+](=O)[O-])cc1)N[C@@H]1CC[C@@]2(O)[C@H]3Cc4ccc(O)c5c4C2(CCN3CC2CC2)[C@H]1O5 | 30.5 | 13.4 | 0.2 |  | 0.8 |  |  | Not Active | inactive |
| Cc1ccc(/C=C/C(=O)N[C@@H]2CC[C@@]3(O)[C@H]4Cc5ccc(O)c6c5C3(CCN4CC3CC3)[C@H]2O6)cc1 | 171 | 12.6 | 0.23 |  | 0.6 | 0.2 | 17100 |  |  |
